These results are taken from ChEMBL document CHEMBL3039007, “Structure-based identification of OATP1B1/3 inhibitors” (Mol Pharmacol, 2013).

For data set [1], the target named is T1, Solute carrier organic anion transporter family member 1B3 (Homo sapiens, UniProt Q9NPD5).
T1 sequence (Q9NPD5 whole entry): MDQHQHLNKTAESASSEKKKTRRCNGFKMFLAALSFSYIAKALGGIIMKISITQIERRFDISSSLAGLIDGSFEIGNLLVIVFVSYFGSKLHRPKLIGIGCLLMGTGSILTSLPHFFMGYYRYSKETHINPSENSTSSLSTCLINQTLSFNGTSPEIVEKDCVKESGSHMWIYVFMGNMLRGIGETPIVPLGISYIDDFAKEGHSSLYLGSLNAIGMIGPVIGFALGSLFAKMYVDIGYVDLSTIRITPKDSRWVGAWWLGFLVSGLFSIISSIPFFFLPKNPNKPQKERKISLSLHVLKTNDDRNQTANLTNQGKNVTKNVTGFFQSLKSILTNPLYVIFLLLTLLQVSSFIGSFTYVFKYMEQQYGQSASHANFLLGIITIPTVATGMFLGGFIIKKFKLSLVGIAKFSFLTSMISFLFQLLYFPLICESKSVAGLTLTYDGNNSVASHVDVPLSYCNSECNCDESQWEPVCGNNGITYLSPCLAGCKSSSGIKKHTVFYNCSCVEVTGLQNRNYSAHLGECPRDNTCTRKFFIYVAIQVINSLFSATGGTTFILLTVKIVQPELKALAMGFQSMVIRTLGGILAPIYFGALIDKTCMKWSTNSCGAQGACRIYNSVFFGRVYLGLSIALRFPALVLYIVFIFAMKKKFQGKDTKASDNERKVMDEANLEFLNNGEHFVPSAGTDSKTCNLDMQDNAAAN
To be noted: chinese hamster, cho, 10 µM.

Data set [2] addresses T2, Solute carrier organic anion transporter family member 1B1 (Homo sapiens, UniProt Q9Y6L6).
T2 sequence (Q9Y6L6 whole entry): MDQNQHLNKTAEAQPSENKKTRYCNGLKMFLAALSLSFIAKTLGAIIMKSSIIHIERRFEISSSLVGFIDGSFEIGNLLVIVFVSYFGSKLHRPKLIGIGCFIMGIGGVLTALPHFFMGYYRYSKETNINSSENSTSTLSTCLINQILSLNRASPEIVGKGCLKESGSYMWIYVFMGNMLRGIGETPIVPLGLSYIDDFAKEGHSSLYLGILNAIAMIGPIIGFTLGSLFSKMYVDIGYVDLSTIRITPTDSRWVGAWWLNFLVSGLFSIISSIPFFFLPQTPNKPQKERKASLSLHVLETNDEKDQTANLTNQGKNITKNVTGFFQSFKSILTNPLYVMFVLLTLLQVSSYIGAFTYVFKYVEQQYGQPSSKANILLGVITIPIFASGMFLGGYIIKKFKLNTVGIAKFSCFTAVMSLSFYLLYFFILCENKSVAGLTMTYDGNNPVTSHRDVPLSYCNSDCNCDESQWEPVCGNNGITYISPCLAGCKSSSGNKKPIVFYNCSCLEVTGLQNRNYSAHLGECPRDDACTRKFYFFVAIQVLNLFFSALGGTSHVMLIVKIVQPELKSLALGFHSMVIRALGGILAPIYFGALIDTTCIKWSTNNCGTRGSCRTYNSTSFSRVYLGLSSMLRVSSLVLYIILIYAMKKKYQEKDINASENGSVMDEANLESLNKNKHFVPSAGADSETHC
The following applies: chinese hamster, cho, 10 µM.

Consider `Cc1cc(O)c2c(c1)C(=O)c1cc(O)cc(O)c1C2=O` [EMODIN], for which the residual activity came out at 119.5% in data set [1] and 135% in data set [2].
The like results for `CCCN(CCC)c1c([N+](=O)[O-])cc(C(F)(F)F)cc1[N+](=O)[O-]` [TRIFLURALIN] were, in that order, 102.7% and 93.6%.
For the compound `COS(C)(=O)=O` [METHANESULFONIC ACID METHYL ESTER], the residual activity was 79.48% in data set [1] and 57.02% in data set [2].
The like results for `COc1nc(NC(C)C)nc(NC(C)C)n1` [PROMETON] were, in that order, 102.5% and 114.4%.
As for `CCC[C@H]1CC2=C(C[C@@H](CC)CC3=C1C(=O)OC3=O)C(=O)OC2=O` [BYSSOCHLAMIC ACID], the figures for the residual activity in data set [1] and in data set [2] were 102.5% and 87.32%, respectively.
The like results for `CC(C)/C(O)=C1/C(=O)O[C@@H](c2ccoc2)[C@]2(C)C(O)[C@@H](O)[C@@]34OC5(C)OC67CC(C)(C(O)[C@]6(O)[C@@H](O)[C@]3(O5)C12)[C@H](CC(=O)O)[C@]74C` (stereo partly specified) [HYDROLYSIS PRODUCT OF BUSSEIN] were, in that order, 78.08% and 52.29%.
The like results for `Cc1ccc(C(C)C)c(O)c1C(=O)O` [ORTHOTHYMOTINIC ACID] were, in that order, 82.08% and 75.5%.
As to `CNC(=O)CSP(=S)(OC)OC` [DIMETHOATE], the residual activity in data set [1] was 114.1%; in data set [2], 106.9%.
For the compound `CN1CCc2cc3c(cc2C1O)OCO3.Cl` (stereo unspecified) [HYDRASTININE HYDROCHLORIDE], the values for the residual activity in data set [1] and in data set [2] were 73.39% and 62.32%, respectively.
Taken in the same sequence, the figures for `c1coc(CNc2ncnc3[nH]cnc23)c1` [KINETIN] were 100.6% and 96.48%.
The like results for `NC[C@H]1O[C@H](O[C@H]2[C@H](O)[C@@H](O[C@H]3O[C@H](CO)[C@@H](O)[C@H](N)[C@H]3O)[C@H](N)C[C@@H]2N)[C@H](N)C[C@@H]1O` [TOBRAMYCIN] were, in that order, 105.2% and 197.1%.
Taken in the same sequence, the figures for `COc1cc2c(cc1OC)[C@H](C)NCC2` [SALSOLIDINE] were 93.8% and 117.3%.
As for `N[C@H](Cc1ccccc1)C(=O)O` [D-PHENYLALANINE], the residual activity worked out at 84.71% in data set [1] and 73.08% in data set [2].
Taken in the same sequence, the figures for `Cl.O=C(O)c1cn(-c2ccc(F)cc2)c2cc(N3CCNCC3)c(F)cc2c1=O` [SARAFLOXACIN HYDROCHLORIDE] were 115.6% and 109.6%.
In the case of `C[C@@H]1CC(Cl)CC[C@H]1C(=O)OC(C)(C)C.C[C@@H]1CCC(Cl)C[C@H]1C(=O)OC(C)(C)C` (stereo partly specified), the residual activity in data set [1] is recorded as 115.1%; in data set [2] it was 121%.
The like results for `COc1c(O)cc2c(-c3ccccc3)cc(=O)oc2c1OC` [KUHLMANNIN] were, in that order, 118.4% and 128.2%.
As to `Oc1c(Cl)cc(Cl)c(Cl)c1Cc1c(O)c(Cl)cc(Cl)c1Cl` [HEXACHLOROPHENE], the results for the residual activity in data set [1] and in data set [2] were 3.11% and 7.55%, respectively.
Regarding `CC(=O)O[C@@H]1C[C@H]2C(C)(C)C(=O)CC[C@]2(C)[C@H]2CC[C@@]3(C)[C@H](c4ccoc4)OC(=O)[C@H]4O[C@]43[C@@]21C` [DIHYDROGEDUNIN], the residual activity in data set [1] is listed as 62.45%; in data set [2] it was 35.54%.
Taken in the same sequence, the figures for `C/C=C1\[C@H]2C=C(C)C[C@]1(N)c1ccc(=O)[nH]c1C2` [HUPERZINE A] were 101.3% and 93.86%.
The like results for `C=CCCCCCCCCCCCC(O)CC(O)COC(C)=O` (stereo unspecified) [AVOCATIN A] were, in that order, 99.6% and 125.1%.
For the compound `CC(C)OC(=O)C(C)(C)Oc1ccc(C(=O)c2ccc(Cl)cc2)cc1` [FENOFIBRATE], the values for the residual activity in data set [1] and in data set [2] were 90.21% and 82.56%, respectively.
The like results for `CC(=O)OCC(=O)[C@@]1(O)CC[C@H]2[C@@H]3C[C@H](C)C4=CC(=O)C=C[C@]4(C)[C@H]3[C@@H](O)C[C@@]21C` [METHYLPREDNISOLONE ACETATE] were, in that order, 84.05% and 52.04%.
Regarding `Nc1nc2c(ncn2[C@H]2C[C@H](O)[C@@H](CO)O2)c(=O)[nH]1` [DEOXYGUANOSINE], the residual activity was found to be 90.97% in data set [1] and 85.51% in data set [2].
Taken in the same sequence, the figures for `Br.COC(=O)C1=CCCN(C)C1` [ARECOLINE HYDROBROMIDE] were 103.7% and 112.6%.
Consider `Cn1c(=O)c2[nH]c(C3CCCC3)nc2n(C)c1=O` [8-CYCLOPENTYLTHEOPHYLLINE], for which the residual activity is 94.04% in data set [1] and 111.5% in data set [2].
Taken in the same sequence, the figures for `O=c1[nH]c(=O)n([C@H]2C[C@H](O)[C@@H](CO)O2)cc1F` [FLOXURIDINE] were 109.2% and 116.3%.
On to `COc1ccc(C(C)=O)c(O)c1` [PAEONOL], for which the residual activity in data set [1] amounted to 108.3%; in data set [2], 121.7%.
For the compound `Cc1cccc2c3c(ccc12)C1=C(C(=O)C3=O)[C@@H](C)CO1` [DIHYDROTANSHINONE I], the residual activity in data set [1] turned out to be 129.1%; in data set [2] it was 111.4%.
In the case of `CO/N=C(\C(=O)N[C@@H]1C(=O)N2C(C(=O)OCOC(=O)C(C)(C)C)=C(/C=C\c3scnc3C)CS[C@H]12)c1csc(N)n1` [CEFDITOREN PIVOXIL], the residual activity in data set [1] was 82.75%; in data set [2], 64.03%.
As to `CCOC(=O)C1(O)Oc2cc(OC)cc(OC)c2C(=O)C1c1ccccc1` (stereo unspecified) [2-ETHOXYCARBONYL-2-HYDROXY-5,7-DIMETHOXYISOFLAVANONE], the residual activity in data set [1] amounted to 104%; in data set [2] it was 106.9%.
Taken in the same sequence, the figures for `COC(=O)C[C@H]1C(C)(C)C(=O)[C@@H]2CC3=C4CC(=O)O[C@@H](c5ccoc5)[C@]4(C)CC[C@@H]3[C@@]1(C)C2=O` [MEXICANOLIDE] were 122.7% and 44.09%.
Taken in the same sequence, the figures for `CCOC(=O)c1ccc(N)cc1` [BENZOCAINE] were 100.6% and 129.5%.
Taken in the same sequence, the figures for `O=C(CC[N+](=O)[O-])OC[C@H]1O[C@@H](O)[C@H](OC(=O)CC[N+](=O)[O-])[C@@H](OC(=O)CC[N+](=O)[O-])[C@@H]1OC(=O)CC[N+](=O)[O-]` [ENDECAPHYLLIN X] were 82.04% and 80.29%.
As to `COc1cc2c(cc1-c1cc3cc4ccoc4cc3oc1=O)OCO2` [PACHYRRIZINE], the residual activity in data set [1] amounted to 121.4%; in data set [2] it was 139.6%.
As for `CCCC(C(=O)OCCN(CC)CC)(c1ccccc1)c1ccccc1.Cl` [PROADIFEN HYDROCHLORIDE], the figures for the residual activity in data set [1] and in data set [2] were 53.55% and 36.21%, respectively.
Taken in the same sequence, the figures for `O=C(OCC(O)CO)c1ccccc1Nc1ccnc2cc(Cl)ccc12` (stereo unspecified) [GLAFENINE] were 130.7% and 188.5%.
The like results for `Cl.Cl.NCCCCN` [PUTRESCINE DIHYDROCHLORIDE] were, in that order, 106.7% and 110.3%.
The like results for `CN[C@H](CC(C)C)C(=O)N[C@H]1C(=O)N[C@@H](CC(N)=O)C(=O)N[C@H]2C(=O)N[C@H]3C(=O)N[C@H](C(=O)N[C@H](C(=O)O)c4cc(O)cc(O)c4-c4cc3ccc4O)[C@H](O)c3ccc(c(Cl)c3)Oc3cc2cc(c3O[C@@H]2O[C@H](CO)[C@@H](O)[C@H](O)[C@H]2O[C@H]2C[C@](C)(N)[C@H](O)[C@H](C)O2)Oc2ccc(cc2Cl)[C@H]1O.Cl` [VANCOMYCIN HYDROCHLORIDE] were, in that order, 103.2% and 99.99%.
